Reference: patent publication US11006631B2, “Substituted pyrimidinyloxy pyridine derivatives as herbicides” (FMC Corporation, priority 2015, dated 2021)

Tests used:
Type in all cases: in vivo
[1] = test system: blackgrass (Alopecurus myosuroides); assay: Test A postemergence, blackgrass; conditions: 0 to 100 scale
Excerpt: (§1) Seeds of plant species selected from bamyardgrass (Echinochloa crus-galli), kochia (Kochia scoparia), ragweed (common ragweed, Ambrosia elatior), ryegrass, Italian (Italian ryegrass, Lolium multiflorum), foxtail, giant (giant foxtail, Setaria faberii), pigweed (Amaranthus retroflexus), crabgrass, large (large crabgrass, Digitaria sanguinalis), momingglory (Ipomoea spp.), velvetleaf (Abutilon theophrasti), wheat (Triticum aestivum), and corn (Zea mays) were planted into a blend of loam soil and sand and treated preemergence with a directed soil spray using test chemicals formulated in a non-phytotoxic solvent mixture which included a surfactant. At the same time, plants selected from these crop and weed species and also blackgrass (Alopecurus myosuroides), and galium (catchweed bedstraw, Galium aparine) were planted in pots containing the same blend of loam soil and sand and treated with postemergence applications of test chemicals formulated in the same manner. Plants ranged in height from 2 to 10 cm and were in the one- to two-leaf stage for the postemergence treatment. Treated plants and untreated controls were maintained in a greenhouse for approximately 10 days, after which time all treated plants were compared to untreated controls and visually evaluated for injury. Plant response ratings, summarized in Table A, are based on a 0 to 100 scale where 0 is no effect and 100 is complete control. A dash (-) response means no test result.

rice (Oryza sativa) = assay: Test B flooded paddy test, rice; conditions: Flood, 250 g ai/ha; scale of 0 to 100
Experimental: (§2) Plant species in the flooded paddy test selected from rice (Oryza sativa), sedge, umbrella (small-flower umbrella sedge, Cyperus difformis), ducksalad (Heteranthera limosa), and barnyardgrass (Echinochloa crus-galli) were grown to the 2-leaf stage for testing. At time of treatment, test pots were flooded to 3 cm above the soil surface, treated by application of test compounds directly to the paddy water, and then maintained at that water depth for the duration of the test. Treated plants and controls were maintained in a greenhouse for 13 to 15 days, after which time all species were compared to controls and visually evaluated. Plant response ratings, summarized in Table B, are based on a scale of 0 to 100 where 0 is no effect and 100 is complete control. A dash (-) response means no test result.

[2] = test system: barnyardgrass (Echinochloa crus-galli); assay: Test A preemergence, barnyardgrass; conditions: 0 to 100 scale
Excerpt: as §1

[3] = test system: foxtail, giant (giant foxtail, Setaria faberii); assay: Test A preemergence, foxtail, giant; conditions: 0 to 100 scale
Excerpt: as §1

[4] = test system: ducksalad (Heteranthera limosa); assay: Test B flooded paddy test, ducksalad; conditions: Flood, 250 g ai/ha; scale of 0 to 100
Experimental: as §2

[5] = test system: foxtail, giant (giant foxtail, Setaria faberii); assay: Test A postemergence, foxtail, giant; conditions: 0 to 100 scale
Excerpt: as §1

[6] = test system: wheat (Triticum aestivum); assay: Test A postemergence, wheat; conditions: 0 to 100 scale
Excerpt: as §1

corn (Zea mays) = assay: Test A postemergence, corn; conditions: 0 to 100 scale
Excerpt: as §1

[7] = test system: barnyardgrass (Echinochloa crus-galli); assay: Test A postemergence, barnyardgrass; conditions: 0 to 100 scale
Excerpt: as §1

[8] = test system: ryegrass, Italian (Italian ryegrass, Lolium multiflorum); assay: Test A postemergence, ryegrass, Italian; conditions: 0 to 100 scale
Excerpt: as §1

kochia (Kochia scoparia) [9] = assay: Test A preemergence, kochia; conditions: 0 to 100 scale
Excerpt: as §1

[10] = test system: sedge, umbrella (small-flower umbrella sedge, Cyperus difformis); assay: Test B flooded paddy test, sedge, umbrella; conditions: Flood, 250 g ai/ha; scale of 0 to 100
Experimental: as §2

[11] = test system: galium (catchweed bedstraw, Galium aparine); assay: Test A postemergence, galium; conditions: 0 to 100 scale
Excerpt: as §1

kochia (Kochia scoparia) [12] = assay: Test A postemergence, kochia; conditions: 0 to 100 scale
Excerpt: as §1

[13] = test system: pigweed (Amaranthus retroflexus); assay: Test A postemergence, pigweed; conditions: 0 to 100 scale
Excerpt: as §1

[14] = test system: ragweed (common ragweed, Ambrosia elatior); assay: Test A postemergence, ragweed; conditions: 0 to 100 scale
Excerpt: as §1

[15] = test system: pigweed (Amaranthus retroflexus); assay: Test A preemergence, pigweed; conditions: 0 to 100 scale
Excerpt: as §1

[16] = test system: ryegrass, Italian (Italian ryegrass, Lolium multiflorum); assay: Test A preemergence, ryegrass, Italian; conditions: 0 to 100 scale
Excerpt: as §1

[17] = test system: ragweed (common ragweed, Ambrosia elatior); assay: Test A preemergence, ragweed; conditions: 0 to 100 scale
Excerpt: as §1

[18] = test system: barnyardgrass (Echinochloa crus-galli); assay: Test B flooded paddy test, barnyardgrass; conditions: Flood, 250 g ai/ha; scale of 0 to 100
Experimental: as §2

SMILES | Plant response rating, Blackgrass ([1]; 31 g ai/ha) | Plant response rating, Blackgrass ([1]; 125 g ai/ha) | Plant response rating, Rice (rice (Oryza sativa)) | Plant response rating, Barnyardgrass ([2]; 31 g ai/ha) | Plant response rating, Barnyardgrass ([2]; 125 g ai/ha) | Plant response rating, Foxtail, Giant ([3]; 31 g ai/ha) | Plant response rating, Foxtail, Giant ([3]; 125 g ai/ha) | Plant response rating, Ducksalad [4] | Plant response rating, Foxtail, Giant ([5]; 31 g ai/ha) | Plant response rating, Foxtail, Giant ([5]; 125 g ai/ha) | Plant response rating, Wheat ([6]; 31 g ai/ha) | Plant response rating, Wheat ([6]; 125 g ai/ha) | Plant response rating, Corn (corn (Zea mays); 31 g ai/ha) | Plant response rating, Corn (corn (Zea mays); 125 g ai/ha) | Plant response rating, Barnyardgrass ([7]; 31 g ai/ha) | Plant response rating, Barnyardgrass ([7]; 125 g ai/ha) | Plant response rating, Ryegrass, Italian ([8]; 31 g ai/ha) | Plant response rating, Ryegrass, Italian ([8]; 125 g ai/ha) | Plant response rating, Kochia (kochia (Kochia scoparia) [9]; 31 g ai/ha) | Plant response rating, Kochia (kochia (Kochia scoparia) [9]; 125 g ai/ha) | other results
FC(F)c1cc(-c2ncccc2Oc2ncc(Cl)cn2)no1 [Compound 6, 5-chloro-2-[[2-[5-(difluoromethyl)-3-isoxazolyl]-3-pyridinyl]oxy]pyrimidine] | 0 | 20 | 0 | 0 | 70 | 0 | 90 | 30 | 20 | 40 | 20 | 30 | 20 | 30 | 10 | 30 | 0 | 10 | 60 | 90 | Plant response rating, Sedge, Umbrella [10]: 0; Plant response rating, Galium ([11]; 31 g ai/ha): 50; Plant response rating, Galium ([11]; 125 g ai/ha): 70; Plant response rating, Kochia (kochia (Kochia scoparia) [12]; 31 g ai/ha): 90; Plant response rating, Kochia (kochia (Kochia scoparia) [12]; 125 g ai/ha): 100; Plant response rating, Pigweed ([13]; 31 g ai/ha): 70; Plant response rating, Pigweed ([13]; 125 g ai/ha): 100; Plant response rating, Ragweed ([14]; 31 g ai/ha): 20; Plant response rating, Ragweed ([14]; 125 g ai/ha): 40; Plant response rating, Pigweed ([15]; 31 g ai/ha): 90; Plant response rating, Pigweed ([15]; 125 g ai/ha): 100; Plant response rating, Ryegrass, Italian ([16]; 31 g ai/ha): 0; Plant response rating, Ryegrass, Italian ([16]; 125 g ai/ha): 0; Plant response rating, Ragweed ([17]; 31 g ai/ha): 0; Plant response rating, Ragweed ([17]; 125 g ai/ha): 50; Plant response rating, Barnyardgrass [18]: 0
Fc1cnc(Oc2cccnc2-c2cc(C(F)F)no2)nc1 [Compound 7] | 0 | 0 | 0 | 0 | 20 | 0 | 20 | 50 | 0 | 0 | 0 | 20 | 0 | 0 | 0 | 0 | 0 | 0 | 20 | 70 | Plant response rating, Sedge, Umbrella [10]: 0; Plant response rating, Galium ([11]; 31 g ai/ha): 20; Plant response rating, Galium ([11]; 125 g ai/ha): 50; Plant response rating, Kochia (kochia (Kochia scoparia) [12]; 31 g ai/ha): 70; Plant response rating, Kochia (kochia (Kochia scoparia) [12]; 125 g ai/ha): 90; Plant response rating, Pigweed ([13]; 31 g ai/ha): 20; Plant response rating, Pigweed ([13]; 125 g ai/ha): 70; Plant response rating, Ragweed ([14]; 31 g ai/ha): 0; Plant response rating, Ragweed ([14]; 125 g ai/ha): 10; Plant response rating, Pigweed ([15]; 31 g ai/ha): 70; Plant response rating, Pigweed ([15]; 125 g ai/ha): 100; Plant response rating, Ryegrass, Italian ([16]; 31 g ai/ha): 0; Plant response rating, Ryegrass, Italian ([16]; 125 g ai/ha): 0; Plant response rating, Ragweed ([17]; 31 g ai/ha): 0; Plant response rating, Ragweed ([17]; 125 g ai/ha): 30; Plant response rating, Barnyardgrass [18]: 0
[O-][n+]1cccc(Oc2ncc(Cl)cn2)c1-c1cc(C(F)F)on1 [Compound 8, 5-chloro-2-[[2-[5-(difluoromethyl)-3-isoxazolyl]-1-oxido-3-pyridinyl]oxy]pyrimidine] | 0 | 10 | 0 | 0 | 0 | 0 | 10 | 40 | 0 | 10 | 10 | 20 | 0 | 20 | 0 | 10 | 0 | 0 | 0 | 40 | Plant response rating, Sedge, Umbrella [10]: 0; Plant response rating, Galium ([11]; 31 g ai/ha): 40; Plant response rating, Galium ([11]; 125 g ai/ha): 60; Plant response rating, Kochia (kochia (Kochia scoparia) [12]; 31 g ai/ha): 40; Plant response rating, Kochia (kochia (Kochia scoparia) [12]; 125 g ai/ha): 70; Plant response rating, Pigweed ([13]; 31 g ai/ha): 50; Plant response rating, Pigweed ([13]; 125 g ai/ha): 70; Plant response rating, Ragweed ([14]; 31 g ai/ha): 30; Plant response rating, Ragweed ([14]; 125 g ai/ha): 50; Plant response rating, Pigweed ([15]; 31 g ai/ha): 40; Plant response rating, Pigweed ([15]; 125 g ai/ha): 90; Plant response rating, Ryegrass, Italian ([16]; 31 g ai/ha): 0; Plant response rating, Ryegrass, Italian ([16]; 125 g ai/ha): 0; Plant response rating, Ragweed ([17]; 31 g ai/ha): 0; Plant response rating, Ragweed ([17]; 125 g ai/ha): 0; Plant response rating, Barnyardgrass [18]: 0
[O-][n+]1cccc(Oc2ncc(F)cn2)c1-n1cc(Cl)cn1 [Compound 9] | 0 | 0 | 0 | 0 | 0 | 0 | 0 | 0 | 0 | 0 | 0 | 0 | 0 | 0 | 0 | 0 | 0 | 0 | 0 | 0 | Plant response rating, Sedge, Umbrella [10]: 0; Plant response rating, Galium ([11]; 31 g ai/ha): 10; Plant response rating, Galium ([11]; 125 g ai/ha): 30; Plant response rating, Kochia (kochia (Kochia scoparia) [12]; 31 g ai/ha): 10; Plant response rating, Kochia (kochia (Kochia scoparia) [12]; 125 g ai/ha): 50; Plant response rating, Pigweed ([13]; 31 g ai/ha): 30; Plant response rating, Pigweed ([13]; 125 g ai/ha): 50; Plant response rating, Ragweed ([14]; 31 g ai/ha): 10; Plant response rating, Ragweed ([14]; 125 g ai/ha): 30; Plant response rating, Pigweed ([15]; 31 g ai/ha): 0; Plant response rating, Pigweed ([15]; 125 g ai/ha): 20; Plant response rating, Ryegrass, Italian ([16]; 31 g ai/ha): 0; Plant response rating, Ryegrass, Italian ([16]; 125 g ai/ha): 0; Plant response rating, Ragweed ([17]; 31 g ai/ha): 0; Plant response rating, Ragweed ([17]; 125 g ai/ha): 0; Plant response rating, Barnyardgrass [18]: 0
[O-][n+]1cccc(Oc2ncc(Cl)cn2)c1-n1cc(Br)cn1 [Compound 11] |  |  |  |  |  |  |  |  |  |  |  |  |  |  |  |  |  |  |  |  | Plant response rating, Blackgrass ([1]; 1000 g ai/ha): 10; Plant response rating, Barnyardgrass ([2]; 1000 g ai/ha): 0; Plant response rating, Foxtail, Giant ([3]; 1000 g ai/ha): 0; Plant response rating, Foxtail, Giant ([5]; 1000 g ai/ha): 0; Plant response rating, Wheat ([6]; 1000 g ai/ha): 0; Plant response rating, Corn (corn (Zea mays); 1000 g ai/ha): 0; Plant response rating, Barnyardgrass ([7]; 1000 g ai/ha): 0; Plant response rating, Ryegrass, Italian ([8]; 1000 g ai/ha): 0; Plant response rating, Kochia (kochia (Kochia scoparia) [9]; 1000 g ai/ha): 30; Plant response rating, Galium ([11]; 1000 g ai/ha): 40; Plant response rating, Kochia (kochia (Kochia scoparia) [12]; 1000 g ai/ha): 60; Plant response rating, Pigweed ([13]; 1000 g ai/ha): 90; Plant response rating, Ragweed ([14]; 1000 g ai/ha): 20; Plant response rating, Pigweed ([15]; 1000 g ai/ha): 100; Plant response rating, Ryegrass, Italian ([16]; 1000 g ai/ha): 0; Plant response rating, Ragweed ([17]; 1000 g ai/ha): 30
